# Measured values taken from patent US6524800B2, “Exploiting genomics in the search for new drugs” (Affymetrix, Inc., priority 1997, dated 2003).
# Read-outs that look alike come from different tables or passages of the source.
# Tests used:
# [1] = system: human lung fibroblast cells; settings: cited from earlier work
# cdc2-cyclin B = assay: purified kinase phosphorylation assay, cdc2-cyclin B; assay type: biochemical, Starfish
# Description: (§1) To examine the effects of a range of diverse substituents on the purine ring, we synthesized combinatorial libraries in which the 2, 6, and 9 positions could be varied starting with a 2-flouro-6-chloropurine framework. (FIG. 1A) (2,3). Substitution chemistry was used to install amines at the 2 and 6 positions, and a Mitsunobu reaction (4,5) was used to alkylate the N9 position of the purine core. The subsitution chemistry allows introduction of primary and secondary amines bearing a wide range of functional groups, whereas the Mitsunobu reaction tolerates primary and secondary alcohols lacking additional acidic hydrogens. Newly appended groups can be modified combinatorially in subsequent steps with a variety of chemistries including acylation, reductive amination, and Suzuki coupling reactions (6), During library synthesis, one position is held invariant to allow attachment to the solid support. Libraries are synthesized in a spatially separated format with either a pin apparatus (7) or polystyrene resin and screened for kinase inhibitors with a 96-well, solution-phase phosphorylation assay.
# 9. Starfish is the major source for cdc2-cyclin B kinase.
# Cdc28p = biological target: T1, Cdc28p (Saccharomyces cerevisiae, UniProt P00546); assay: kinase assay in immunoprecipitates, Cdc28p; assay type: biochemical, yeast; settings: for inhibition of Cdc28p (in words): immunoprecipitates
# T1 construct: made in house
# T1 sequence (P00546 whole entry): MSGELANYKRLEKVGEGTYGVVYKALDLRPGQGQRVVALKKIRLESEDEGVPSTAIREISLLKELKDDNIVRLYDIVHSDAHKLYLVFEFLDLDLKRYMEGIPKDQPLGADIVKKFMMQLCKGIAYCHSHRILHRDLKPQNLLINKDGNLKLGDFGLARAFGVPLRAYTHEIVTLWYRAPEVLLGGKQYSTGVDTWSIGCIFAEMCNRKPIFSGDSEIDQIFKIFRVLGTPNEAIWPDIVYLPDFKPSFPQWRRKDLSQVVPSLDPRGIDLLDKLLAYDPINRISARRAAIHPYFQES
# Pho85p = biological target: T2, Pho85p (Saccharomyces cerevisiae, UniProt P17157); assay: kinase assay in immunoprecipitates, Pho85p; assay type: biochemical, yeast; settings: for inhibition of Pho85p (in words): immunoprecipitates
# T2 construct: made in house
# T2 sequence (P17157 whole entry): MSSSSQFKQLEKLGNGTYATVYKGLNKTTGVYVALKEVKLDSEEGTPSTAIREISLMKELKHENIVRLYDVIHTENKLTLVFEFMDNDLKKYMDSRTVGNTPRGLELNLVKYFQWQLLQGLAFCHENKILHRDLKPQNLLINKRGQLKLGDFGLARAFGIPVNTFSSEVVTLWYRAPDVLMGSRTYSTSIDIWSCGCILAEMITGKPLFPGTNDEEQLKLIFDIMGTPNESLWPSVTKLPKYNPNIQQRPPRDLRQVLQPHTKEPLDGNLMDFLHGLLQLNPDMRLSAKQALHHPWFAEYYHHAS
# Kin28p = biological target: T3, Kin28p (Saccharomyces cerevisiae, UniProt P06242); assay: kinase assay in immunoprecipitates, Kin28p; assay type: biochemical; settings: immunoprecipitated yeast kinase
# T3 construct: made in house
# T3 sequence (P06242 whole entry): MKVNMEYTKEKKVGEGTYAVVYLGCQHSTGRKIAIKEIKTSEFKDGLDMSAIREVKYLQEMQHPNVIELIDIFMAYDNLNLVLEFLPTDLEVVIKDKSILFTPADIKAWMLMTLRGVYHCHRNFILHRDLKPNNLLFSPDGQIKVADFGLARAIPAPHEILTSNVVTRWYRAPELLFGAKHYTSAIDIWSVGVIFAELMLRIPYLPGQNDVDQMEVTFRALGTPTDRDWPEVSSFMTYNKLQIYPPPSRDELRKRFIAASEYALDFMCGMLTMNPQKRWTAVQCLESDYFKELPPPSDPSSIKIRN
# T3 sequence (P37366 whole entry partner): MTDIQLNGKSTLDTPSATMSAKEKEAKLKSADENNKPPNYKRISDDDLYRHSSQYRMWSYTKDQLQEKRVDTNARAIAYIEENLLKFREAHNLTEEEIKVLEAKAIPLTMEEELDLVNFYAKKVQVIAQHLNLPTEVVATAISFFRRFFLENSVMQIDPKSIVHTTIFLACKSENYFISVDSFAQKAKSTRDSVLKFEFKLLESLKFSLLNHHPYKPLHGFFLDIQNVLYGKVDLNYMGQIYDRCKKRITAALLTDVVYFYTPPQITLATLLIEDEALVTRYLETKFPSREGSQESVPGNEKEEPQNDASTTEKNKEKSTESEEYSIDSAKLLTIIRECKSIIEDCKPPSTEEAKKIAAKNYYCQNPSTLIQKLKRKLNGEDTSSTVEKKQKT
# Srb10 = biological target: T4, Srb10 (Saccharomyces cerevisiae, UniProt P39073); assay: kinase assay in immunoprecipitates, Srb10; assay type: biochemical; settings: immunoprecipitated yeast kinase
# T4 construct: made in house
# Cak1p = biological target: T5, Cak1p (Saccharomyces cerevisiae, UniProt P43568); assay: kinase assay in immunoprecipitates, Cak1p; assay type: biochemical; settings: immunoprecipitated yeast kinase
# T5 construct: made in house
# [2] = system: drug-sensitized yeast strain; assay: yeast growth inhibition; assay type: cell-based; settings: Saccharomyces cerevisiae; strain with drug-sensitizing deletions (erg6, pdr5, snq2)
# [3] = system: mRNA levels of nearly all yeast genes; assay: transcript profiling with high-density oligonucleotide expression arrays; assay type: cell-based, S. cerevisiae; settings: for number of genes with greater than twofold change in transcript level: more than 6200 genes monitored; for YCRX13W SOL2 transcript INCREASE: FLA UNIQUE
# Procedure: In addition to measuring the inhibitory effects of purine derivatives in kinase assays and assays of cell growth, their effects on the mRNA levels of nearly all yeast genes were determined with high-density oligonucleotide expression arrays (17, 18). These arrays (19, 20) make it possible to measure quantitatively and in parallel mRNA levels for a very large number of genes after any chemical, environmental, or genetic perturbation.
# Yeast cultures were grown to late logarithmic phase (15), treated with 25 μM concentrations of the inhibitors for 2 hours, after which cellular polyadenylated mRNA was isolated and converted to biotin-labeled complementary RNA (cRNA) (17, 18). The labeled cRNA was then hybridized to a set of four arrays containing more than 260,000 25-nucleotide oligomers (20).
# 15. […] Three cultures [110 ml, in yeast extract, peptone, and dextrose (YPD)] were inoculated with single colonies of YRP1 (MAT, erg6::LEU2, pdr5::TRP1, snq2::HIS6) and grown at 30° C. with constant agitation in a water bath incubator. When the cell density reached an optical density (OD) of 0.9 (at a wavelength of 600 nm), 27.5 μl of a 100 mM dimethyl sulfoxide (DMSO) stock solution of 52 or flavopiridol or DMSO alone was added. After 2 hours the cells were harvested by centrifugation and flash frozen with liquid nitrogen. For the temperature-sensitive cdc28 mutants, three cultures (75 ml, YPD) of AFS 199 (cdc28-13), AA104 (cdc28-4), and their isogenic background strain AFS34 (MATa, ade2-1, his3-11, leu2-3, trp1-1, ura3) were grown from single colonies to an OD of 0.9 (600 nm) and harvested as described. Frozen cells were stored at […]
# yeast cells = assay: yeast arrest morphology and FACS; assay type: cell-based
# Description: 16. The diminished growth inhibitory activity of compound 52Me is unlikely to result from poorer bioavailability because a similar N6 methylation is observed to increase the in vivo potency of a related series of purine-based inhibitors. The residual growth inhibitory activity of 52Me likely reflects activity against other cellular targets.
# [4] = system: four yeast CDKs (Cdc28p, Kin28p, Pho85p, and Srb10p) and the related kinase Cak1p; assay: yeast kinase panel in immunoprecipitates; assay type: biochemical
# cdk2-cyclin A = cdk2-cyclin A (Homo sapiens, UniProt P24941); assay: purified kinase assay, cdk2-cyclin A; assay type: biochemical
# Description: as §1
# cdk2-cyclin E = cdk2-cyclin E (Homo sapiens, UniProt P24941); assay: purified kinase assay, cdk2-cyclin E; assay type: biochemical
# Description: as §1
# cdk4-cyclin D1 = cdk4-cyclin D1 (Homo sapiens, UniProt P11802); assay: purified kinase assay, cdk4-cyclin D1; assay type: biochemical
# Description: as §1
# cdk5-p35 = cdk5-p35 (Homo sapiens, UniProt Q00535); assay: purified kinase assay, cdk5-p35; assay type: biochemical
# Description: as §1
# erk1 = erk1 (Homo sapiens, UniProt P27361); assay: purified kinase assay, erk1; assay type: biochemical
# erk1, sequence (P27361 whole entry): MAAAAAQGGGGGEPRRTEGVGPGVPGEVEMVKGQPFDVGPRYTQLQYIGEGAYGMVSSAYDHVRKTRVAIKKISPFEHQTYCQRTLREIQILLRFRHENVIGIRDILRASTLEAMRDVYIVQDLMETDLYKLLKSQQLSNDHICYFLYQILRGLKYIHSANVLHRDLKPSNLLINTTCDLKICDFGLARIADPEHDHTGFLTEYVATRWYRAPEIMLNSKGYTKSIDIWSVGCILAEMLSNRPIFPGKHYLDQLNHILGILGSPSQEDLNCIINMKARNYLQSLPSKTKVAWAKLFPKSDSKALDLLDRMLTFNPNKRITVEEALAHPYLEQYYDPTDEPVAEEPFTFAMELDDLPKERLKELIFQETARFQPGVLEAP
# Description: as §1
# [5] = biological target: c-jun NH2-terminal kinase; assay: purified kinase assay, c-jun NH2-terminal kinase; assay type: biochemical, human
# Description: as §1
# Protein kinase C [6] = biological target: Protein kinase C (Homo sapiens, UniProt P17252); assay: purified kinase assay, Protein kinase C (Table 1 r15); assay type: biochemical; settings: Table 1 r15, isoform symbol not given
# Description: as §1
# Protein kinase C1 = Protein kinase C1 (Homo sapiens, UniProt P05771); assay: purified kinase assay, Protein kinase C1 (Table 1 r16); assay type: biochemical
# Description: as §1
# Protein kinase C2 = Protein kinase C2 (Homo sapiens, UniProt P05771); assay: purified kinase assay, Protein kinase C2 (Table 1 r17); assay type: biochemical
# Description: as §1
# Protein kinase C [7] = biological target: Protein kinase C (Homo sapiens, UniProt P05129); assay: purified kinase assay, Protein kinase C (Table 1 r18); assay type: biochemical; settings: Table 1 r18, isoform symbol not given
# Description: as §1
# Protein kinase C [8] = biological target: Protein kinase C (Homo sapiens, UniProt Q05655); assay: purified kinase assay, Protein kinase C (Table 1 r19); assay type: biochemical; settings: Table 1 r19, isoform symbol not given
# Protein kinase C (Homo sapiens, UniProt Q05655), sequence (Q05655 whole entry, canonical isoform): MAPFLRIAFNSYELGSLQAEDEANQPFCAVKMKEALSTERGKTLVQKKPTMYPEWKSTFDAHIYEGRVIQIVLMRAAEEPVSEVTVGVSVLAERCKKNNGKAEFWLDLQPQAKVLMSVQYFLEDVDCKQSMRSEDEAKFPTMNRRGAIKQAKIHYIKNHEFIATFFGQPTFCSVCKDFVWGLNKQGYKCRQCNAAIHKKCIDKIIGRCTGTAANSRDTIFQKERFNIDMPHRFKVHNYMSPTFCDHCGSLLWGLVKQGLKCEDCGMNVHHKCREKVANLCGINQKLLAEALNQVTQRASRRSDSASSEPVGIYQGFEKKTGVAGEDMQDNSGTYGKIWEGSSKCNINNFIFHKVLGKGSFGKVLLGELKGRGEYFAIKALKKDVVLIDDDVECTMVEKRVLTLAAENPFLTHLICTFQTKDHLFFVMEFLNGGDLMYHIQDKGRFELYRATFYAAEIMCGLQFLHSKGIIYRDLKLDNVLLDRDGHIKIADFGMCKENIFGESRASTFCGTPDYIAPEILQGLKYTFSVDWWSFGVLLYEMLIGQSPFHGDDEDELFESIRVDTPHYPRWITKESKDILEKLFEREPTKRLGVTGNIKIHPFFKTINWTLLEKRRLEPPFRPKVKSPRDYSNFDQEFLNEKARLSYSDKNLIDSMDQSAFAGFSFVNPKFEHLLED
# Description: as §1
# Protein kinase C [9] = biological target: Protein kinase C (Homo sapiens, UniProt Q02156); assay: purified kinase assay, Protein kinase C (Table 1 r20); assay type: biochemical; settings: Table 1 r20, isoform symbol not given
# Description: as §1
# Protein kinase C [10] = biological target: Protein kinase C (Homo sapiens, UniProt P24723); assay: purified kinase assay, Protein kinase C (Table 1 r21); assay type: biochemical; settings: Table 1 r21, isoform symbol not given
# Description: as §1
# Protein kinase C [11] = biological target: Protein kinase C (Homo sapiens, UniProt Q05513); assay: purified kinase assay, Protein kinase C (Table 1 r22); assay type: biochemical; settings: Table 1 r22, isoform symbol not given
# Protein kinase C (Homo sapiens, UniProt Q05513), sequence (Q05513 whole entry, canonical isoform): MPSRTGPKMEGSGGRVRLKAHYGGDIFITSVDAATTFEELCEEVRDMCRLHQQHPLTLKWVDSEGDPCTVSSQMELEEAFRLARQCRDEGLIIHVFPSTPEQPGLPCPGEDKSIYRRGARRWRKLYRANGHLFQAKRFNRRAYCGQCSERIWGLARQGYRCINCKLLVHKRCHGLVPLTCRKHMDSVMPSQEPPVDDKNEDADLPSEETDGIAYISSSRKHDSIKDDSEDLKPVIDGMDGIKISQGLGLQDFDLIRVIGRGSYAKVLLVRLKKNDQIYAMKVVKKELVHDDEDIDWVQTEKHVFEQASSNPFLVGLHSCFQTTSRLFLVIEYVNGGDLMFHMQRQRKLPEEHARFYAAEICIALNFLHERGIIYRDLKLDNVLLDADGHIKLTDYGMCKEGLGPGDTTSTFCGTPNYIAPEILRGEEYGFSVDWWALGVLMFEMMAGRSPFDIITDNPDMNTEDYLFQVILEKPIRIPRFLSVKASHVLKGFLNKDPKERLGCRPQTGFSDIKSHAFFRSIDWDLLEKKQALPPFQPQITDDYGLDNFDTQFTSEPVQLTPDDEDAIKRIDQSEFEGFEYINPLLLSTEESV
# Description: as §1
# [12] = biological target: cAMP-dependent protein kinase (Homo sapiens, UniProt P17612); assay: purified kinase assay, cAMP-dependent protein kinase; assay type: biochemical
# Description: as §1
# [13] = biological target: cGMP-dependent protein kinase (Homo sapiens, UniProt Q13976); assay: purified kinase assay, cGMP-dependent protein kinase; assay type: biochemical
# cGMP-dependent protein kinase, sequence (Q13976 whole entry): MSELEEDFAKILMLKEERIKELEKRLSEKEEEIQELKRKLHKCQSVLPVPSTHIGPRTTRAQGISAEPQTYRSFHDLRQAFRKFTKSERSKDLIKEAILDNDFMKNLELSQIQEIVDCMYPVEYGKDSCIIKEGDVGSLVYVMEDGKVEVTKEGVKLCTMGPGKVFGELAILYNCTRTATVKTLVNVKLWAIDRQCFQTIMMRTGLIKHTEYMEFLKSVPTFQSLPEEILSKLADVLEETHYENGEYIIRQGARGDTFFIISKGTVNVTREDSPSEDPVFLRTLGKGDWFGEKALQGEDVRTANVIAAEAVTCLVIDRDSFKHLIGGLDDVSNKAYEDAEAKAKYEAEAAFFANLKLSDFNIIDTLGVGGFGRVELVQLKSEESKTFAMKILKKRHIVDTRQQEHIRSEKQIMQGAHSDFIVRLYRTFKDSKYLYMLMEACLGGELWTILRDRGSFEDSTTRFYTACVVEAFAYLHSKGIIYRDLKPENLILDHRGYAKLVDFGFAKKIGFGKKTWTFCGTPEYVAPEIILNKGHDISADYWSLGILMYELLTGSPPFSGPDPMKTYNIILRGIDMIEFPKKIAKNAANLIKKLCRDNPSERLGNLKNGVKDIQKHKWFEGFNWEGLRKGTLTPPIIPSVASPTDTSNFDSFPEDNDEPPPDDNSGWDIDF
# Description: as §1
# Casein kinase 1 = assay: purified kinase assay, Casein kinase 1; assay type: biochemical, human
# Description: as §1
# GSK3- = GSK3- (Homo sapiens, UniProt P49841); assay: purified kinase assay, GSK3-; assay type: biochemical
# Description: as §1
# [14] = biological target: Insulin-receptor tyrosine kinase (Homo sapiens, UniProt P06213); assay: purified kinase assay, Insulin-receptor tyrosine kinase; assay type: biochemical
# Insulin-receptor tyrosine kinase, sequence (P06213 28-1382): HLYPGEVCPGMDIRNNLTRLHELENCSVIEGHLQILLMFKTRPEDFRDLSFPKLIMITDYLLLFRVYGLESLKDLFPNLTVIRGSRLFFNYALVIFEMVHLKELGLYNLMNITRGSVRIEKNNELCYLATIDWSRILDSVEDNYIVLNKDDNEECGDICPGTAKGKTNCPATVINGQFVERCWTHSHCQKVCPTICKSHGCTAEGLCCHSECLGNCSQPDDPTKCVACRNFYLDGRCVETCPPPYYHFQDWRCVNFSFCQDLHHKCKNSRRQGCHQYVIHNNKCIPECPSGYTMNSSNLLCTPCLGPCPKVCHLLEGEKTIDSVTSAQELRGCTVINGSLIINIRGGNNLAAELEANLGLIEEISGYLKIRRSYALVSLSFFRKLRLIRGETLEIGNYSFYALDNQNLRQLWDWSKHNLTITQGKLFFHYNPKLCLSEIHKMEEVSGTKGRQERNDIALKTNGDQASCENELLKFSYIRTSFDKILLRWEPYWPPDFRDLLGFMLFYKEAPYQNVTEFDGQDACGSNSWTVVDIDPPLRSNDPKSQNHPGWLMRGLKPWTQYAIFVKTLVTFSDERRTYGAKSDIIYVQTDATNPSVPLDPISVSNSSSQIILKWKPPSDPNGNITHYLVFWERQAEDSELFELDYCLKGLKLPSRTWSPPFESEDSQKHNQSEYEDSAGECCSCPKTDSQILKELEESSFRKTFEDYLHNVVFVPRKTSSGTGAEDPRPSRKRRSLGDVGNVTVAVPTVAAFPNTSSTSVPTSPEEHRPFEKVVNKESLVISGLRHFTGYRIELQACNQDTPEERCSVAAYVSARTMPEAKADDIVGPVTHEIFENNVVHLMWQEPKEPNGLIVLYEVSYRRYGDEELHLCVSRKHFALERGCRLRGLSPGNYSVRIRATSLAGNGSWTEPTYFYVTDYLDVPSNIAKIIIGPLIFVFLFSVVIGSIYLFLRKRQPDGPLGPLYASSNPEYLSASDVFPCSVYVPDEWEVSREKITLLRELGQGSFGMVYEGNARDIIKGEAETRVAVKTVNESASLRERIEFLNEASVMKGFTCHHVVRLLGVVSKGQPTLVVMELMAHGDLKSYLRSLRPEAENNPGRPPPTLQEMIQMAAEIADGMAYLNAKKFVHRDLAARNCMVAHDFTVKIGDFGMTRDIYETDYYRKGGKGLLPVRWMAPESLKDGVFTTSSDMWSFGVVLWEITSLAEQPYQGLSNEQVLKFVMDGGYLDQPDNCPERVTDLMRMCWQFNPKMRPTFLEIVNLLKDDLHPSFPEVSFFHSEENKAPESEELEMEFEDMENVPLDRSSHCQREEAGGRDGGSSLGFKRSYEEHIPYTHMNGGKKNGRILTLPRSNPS
# Description: as §1
# [15] = system: NCI panel of 60 human tumor cell lines; assay: NCI panel growth inhibition; assay type: cell-based
# [16] = system: KM12 colon cancer cell line; assay: NCI panel growth inhibition, KM12; assay type: cell-based, human
# [17] = system: NCI-H522 non-small cell lung cancer cell line; assay: NCI panel growth inhibition, NCI-H522; assay type: cell-based, human
# [18] = immunoprecipitated yeast kinase
# [19] = yeast, inhibitor versus untreated
Compound,inhibition of Cdc28p (in words) (Cdc28p),inhibition of Pho85p (in words) (Pho85p),GI50 [2],"% of transcripts with greater than twofold change ([3]; 25 μM, 2 hours)","ribosomal protein transcripts decreased at least threefold ([3]; 25 μM, 2 hours)","number of genes with greater than twofold change in transcript level ([3]; 25 μM, 2 hours)",YCRX13W SOL2 transcript INCREASE [3],"Y13R214W transcript INCREASES [3, 19]","YBL002W HTB2 transcript DECREASES [3, 19]","YBR296C transcript change (in words) [3, 19]","YGLI79 transcript change (in words) [3, 19]","YGR108W (CLB 1) transcript DECREASES [3, 19]","YKRO97W PCK1 transcript INCREASES [3, 19]","YLR178c (TFS1) transcript INCREASES [3, 19]",arrest morphology in yeast (in words) (yeast cells),synchronization of yeast cells by FACS (in words) (yeast cells),IC50 [5],IC50 [12],IC50 [13],IC50 (Casein kinase 1),also measured
COc1ccc(CNc2nc(N(CCO)CCO)nc3c2ncn3C(C)C)cc1 [2-(bis-(hydroxylethyl)amino)-6-(4-methoxybenzylamino)-9-isopropylpurine],–,–,–,–,–,–,–,–,–,–,–,–,–,–,–,–,–,–,–,–,cell cycle inhibitory activity by FACS ([1]; high concentrations): both G1-S and G2-M inhibitory activity; cell cycle inhibitory activity by FACS ([1]; lower concentrations): predominant G1-S inhibition
"CC(C)n1cnc2c(Nc3cccc(Cl)c3)nc(NCCO)nc21 [Compound 52, 2-(2-hydroxyethylamino)-6-(3-chloroanilino)-9-isopropylpurine]",inhibited,inhibited,30 µM,3%,14,194,C52 - much smaller inc. (NL. 8 x at most) ×,(4-4.5 × for C52,(˜4.5 × for C52,VERY LARGE INCREASE (15-,INCREASES C52 & FLA,(˜8 fold with C52,˜7-8 fold with C52,INCREASES ˜6x,failed to cause a uniform arrest morphology,did not reveal synchronization,–,–,–,–,"IC50 (cdc2-cyclin B): 0.34 µM; IC50 (Cdc28p; [18]): 7 µM; IC50 (Pho85p; [18]): 2 µM; IC50 (Kin28p): > 500 µM; IC50 (Srb10): > 500 µM; IC50 (Cak1p): > 500 µM; number of genes whose transcript levels were decreased at least threefold ([3]; 25 μM, 2 hours): ~50; YKLO71W transcript Increase ([3]; C52 UNIQUE): 7-12 × Increase (C52); YDR281 C transcript INCREASE [3, 19]: ˜4.5-5.5 × INCREASE"
CC(C)n1cnc2c(N(C)c3cccc(Cl)c3)nc(NCCO)nc21 [Compound 52Me],–,–,200 µM,0.03%,–,2,–,–,–,–,–,–,–,–,failed to cause a uniform arrest morphology,did not reveal synchronization,–,–,–,–,inhibition of any of the CDKs tested (in words) [4]: did not inhibit
"CN1CC[C@H](c2c(O)cc(O)c3c(=O)cc(-c4ccccc4Cl)oc23)[C@H](O)C1 [flavopiridol, reference compound]",–,–,7 µM,2%,no ribosomal protein transcript levels decreased more than threefold,132,7.5-10 × INCREASE,7-8.5 × for FLA,˜2.7 × for FLA,VERY LARGE INCREASE (15-,INCREASES C52 & FLA,˜2.5-3 fold with FLA),˜4 × with FLA fold,INCREASES ˜6x,failed to cause a uniform arrest morphology,–,–,–,–,–,–
CC(C)[C@H](CO)Nc1nc(Nc2cccc(Cl)c2)c2ncn(C(C)C)c2n1 [purvalanol A],inhibited,inhibited,–,–,–,–,–,–,–,–,–,–,–,–,–,–,> 1 µM,9 µM,> 10 µM,> 3.33 µM,"IC50 (cdk2-cyclin A): 0.07 µM; IC50 (cdk2-cyclin E): 0.035 µM; IC50 (cdk4-cyclin D1): 0.85 µM; IC50 (cdk5-p35): 0.075 µM; IC50 (erk1): 9 µM; IC50 (Protein kinase C [6]): > 10 µM; IC50 (Protein kinase C1): > 10 µM; IC50 (Protein kinase C2): > 10 µM; IC50 (Protein kinase C [7]): > 10 µM; IC50 (Protein kinase C [8]): > 100 µM; IC50 (Protein kinase C [9]): > 100 µM; IC50 (Protein kinase C [10]): > 100 µM; IC50 (Protein kinase C [11]): > 100 µM; IC50 (GSK3-): > 10 µM; IC50 [14]: 5 µM; increase in sensitivity of two cell lines out of the 60 ([15]; KM12 and NCI-H522 versus average GI50): ~20 fold; GI50 ([15]; read-out: average GI50 (50% growth inhibition), average over 60 cell lines): 2 µM; GI50 [16]: 0.076 µM; GI50 [17]: 0.347 µM"
"CC(C)[C@H](CO)Nc1nc(Nc2ccc(C(=O)O)c(Cl)c2)c2ncn(C(C)C)c2n1 [purvalanol B, 2-(1R-isopropyl-2-hydroxyethylamino)-6-(3-chloro-4-carboxyanilino)-9-isopropylpurine]",–,–,–,–,–,–,–,–,–,–,–,–,–,–,–,–,> 10 µM,3.8 µM,> 100 µM,> 3.33 µM,IC50 [14]: 2.2 µM
